Laboratory results taken from patent publication US6455516B1, “Method and compounds for use in the treatment of steroid induced states of the central nervous system” (priority 1998, dated 2002).
Entries after “also recorded” stand apart in the source; their conditions may differ.

How the values were obtained:
[1] = test system: slices from hippocampal CA1 region; assay: Hippocampus slice in vitro model: induced population spike (POPSP) over the synapse in area CA1; assay type: cell-based, rat; conditions: for Blocking of the effect of 3alpha-hydroxy-5alpha-pregnan-20-one on the signal/POPSP / Blocking of the effect of 3alpha-hydroxy-5beta-pregnan-20-one on the signal/POPSP: given simultaneously, equimolar dose in the nM range; for Effect on the signal transmitted over the synapse / amplitude of the POPSP: steroid alone
Description: In another preliminary study, the hippocampus slice model in the female rat of the luteal phase was used. This corresponds to the phase in humans when most of CNS effects are noticed in women with epilepsy and premenstrual syndrome.
In the hippocampus slice in vitro model the effect of steroids on an electrical signal over the synapse in the area CA1 was investigated. The stimulation is on one side of the synapse and a measurement of the response is made on the other side. A small droplet containing the steroid can be placed on top of the synapse and thus influence the synaptic transmission. Secondly a steroid can also be dissolved in the nutrient fluid perfusing the hippocampous slice. The steroid in the perfusion will influence the whole slice including the synapse under investigation.

[2] = Steroids tested by the inventors as agonist, blocker or antagonist to the sedative steroids (method not given)
[3] = test system: Sprague-Dawley rats; assay: EEG-threshold method for deep anaesthesia ("silent second"), continuous intravenous infusion; assay type: in vivo, rat; conditions: for Intercept of regression line (anaesthetic steroid dosage needed for SS at zero 3beta-hydroxy-5alpha-pregnan-20-one): FIG. 1 / FIG. 2; for Optimal dose rate (gives the lowest threshold dose): rats
Procedure: The present invention is based on experiments in vivo, performed to confirm the blocking effect of 3beta-hydroxy-5alpha-pregnan-20-one on 3alpha-hydroxy-5alpha-pregnan-20-one in a preliminary study. 3alpha-hydroxy-5alpha-pregnan-20-one dissolved in 20% cyclodextrin was given to male Sprague-Dawley rats in an i.v. infusion dose rate of close to 3.0 mg/kg/min. This is the optimal dose rate for 3alpha-hydroxy-5alpha-pregnan-20-one. 3alpha-hydroxy-5alpha-pregnan-20-one and 3beta-hydroxy-5alpha-pregnan-20-one were dissolved, 50/50%, in water solution containing cyclodextrin. The control solution only contained 3alpha-hydroxy-5alpha-pregnan-20-one. The amount of 3alpha-hydroxy-5alpha-pregnan-20-one needed to obtain silent second, the anaesthesia criteria, was 21% higher with the combined solution compared to 3alpha-hydroxy-5alpha-pregnan-20-one alone, showing an interaction between 3alpha-hydroxy-5alpha-pregnan-20-one and 3beta-hydroxy-5alpha-pregnan-20-one in vivo. There was no overlap between the effect of the combined solution and control solution of 3alpha-hydroxy-5alpha-pregnan-20-one.
In further studies, performed after the priority date, the present invention was tested in in vivo experiments in which the blocking effect of 3beta-hydroxy-5alpha-pregnan-20-one was assessed by investigating the dosage of 3alpha-hydroxy-5alpha-pregnan-20-one and 3alpha-hydroxy-5beta-pregnan-20-one needed to induce a deep anaesthesia in the presence of increasing amounts of 3beta-hydroxy-5alpha-pregnan-20-one. An EEG-threshold method for deep anaesthesia was used. The method is developed to determine the sensitivity in the central nervous system (CNS) to the depressant drugs, mainly intravenous anaesthetic agents. Drugs are administered into the tail vein by continuous intravenous infusion while an Electro-Encephalo-Gram (EEG) is recorded. The infusion was immediately stopped and infusion time recorded, when the first burst of EEG suppression for one second or more is noted, the threshold criterion for a deep anaethesia, the “silent second” (SS). The appearance of SS is considered as a deeper anaesthesia state than the loss of righting reflex. The threshold dose (mg/kg) is calculated by multiplying the time to obtain SS with the dose rate (mg/kg/min). The threshold doses of the tested drug indicates its relative anaesthetic potency. The threshold doses are also related to CNS excitability. An increase or decrease in CNS excitability can be measured by a change in threshold doses of anesthetics. The dose rates which give the lowest threshold dose is considered as the optimal dose rate. The optimal dose rate and anaesthetic threshold dosage for 3alpha-hydroxy-5alpha-pregnan-20-one and […] at several times and the optimal dose rate is close to 3.0 mg/kg/min for both 3alpha-hydroxy-5alpha-pregnan-20-one and 3alpha-hydroxy-5beta-pregnan-20-one. The anaesthetic threshold dosage is for 3alpha-hydroxy-5alpha-pregnan-20-one between 6.5 to 8.0 mg/kg and for 3alpha-hydroxy-5beta-pregnan-20-one between 9 to 11 mg/kg depending on the age of the rats and the solvent used.
3alpha-hydroxy-5alpha-pregnan-20-one and […] dissolved in 20% cyclodextrin were given to Sprague-Dawley rats in an intravenous infusion at the optimal dose rate. 3beta-hydroxy-5alpha-pregnan-20-one was also dissolved in a 20% cyclodextrin solution and given simultaneously in a dosage 100%, 123% and 143% of the 3alpha-hydroxy-5alpha-pregnan-20-one dosage (n=11) and 70%, 100%, 123% and 143% of the 3alpha-hydroxy-5beta-pregnan-20-one dosage (n=16). […] The correlation between the dosage 3beta-hydroxy-5alpha-pregnan-20-one given and the dosage of 3alpha-hydroxy-5alpha-pregnan-20-one and 3alpha-hydroxy-5beta-pregnan-20-one needed to obtain the criterion of SS is highly significant (FIG. 1 and FIG. 2).

[4] = test system: Sprague-Dawley rats; conditions: a result found by several groups and described in earlier reports; cited from earlier work

Molecule: 3beta-hydroxy-pregnenolone
- Blocking of the effect of 3alpha-hydroxy-5alpha-pregnan-20-one on the signal/POPSP ([1]; local application): no blocking effect
- Blocking of the effect of 3alpha-hydroxy-5beta-pregnan-20-one on the signal/POPSP ([1]; local application): no blocking effect
- Effect as agonist, blocker or antagonist to the sedative steroids [2]: no effect either as an agonist or blocker or antagonist

Molecule: CC(=O)[C@H]1CC[C@H]2[C@@H]3CC[C@H]4C[C@H](O)CC[C@]4(C)[C@H]3CC[C@]12C [3alpha-hydroxy-5alpha-pregnan-20-one, reference compound]
- Intercept of regression line (anaesthetic steroid dosage needed for SS at zero 3beta-hydroxy-5alpha-pregnan-20-one) [3]: 6.9 mg/kg
- Optimal dose rate (gives the lowest threshold dose) ([3]; i.v. infusion): ~3.0 mg/kg/min
- Reduction of the amplitude of the induced population spike ([1]; local application, FIG. 3): 45%
- Effect on the signal transmitted over the synapse / amplitude of the POPSP ([1]; local application): inhibition of the signal transmitted over the synapse

Molecule: CC(=O)[C@H]1CC[C@H]2[C@@H]3CC[C@@H]4C[C@H](O)CC[C@]4(C)[C@H]3CC[C@]12C [3alpha-hydroxy-5beta-pregnan-20-one, reference compound]
- Intercept of regression line (anaesthetic steroid dosage needed for SS at zero 3beta-hydroxy-5alpha-pregnan-20-one) [3]: 9.1 mg/kg
- Optimal dose rate (gives the lowest threshold dose) ([3]; i.v. infusion): ~3.0 mg/kg/min
- Effect on the signal transmitted over the synapse / amplitude of the POPSP ([1]; local application): inhibition of the signal transmitted over the synapse; also recorded: inhibits the amplitude of the POPSP

Molecule: CC(=O)[C@H]1CC[C@H]2[C@@H]3CC[C@H]4C[C@@H](O)CC[C@]4(C)[C@H]3CC[C@]12C [3beta-hydroxy-5alpha-pregnan-20-one]
- Correlation coefficient r: 3alpha-hydroxy-5alpha-pregnan-20-one dosage needed for SS vs 3beta-hydroxy-5alpha-pregnan-20-one dosage ([3]; FIG. 1, p<0.001, df=9): 0.90
- Slope of regression line: 3alpha-hydroxy-5alpha-pregnan-20-one dosage needed for SS vs 3beta-hydroxy-5alpha-pregnan-20-one dosage ([3]; FIG. 1, slope p<0.001 different from 0): 0.43
- Correlation coefficient r: 3alpha-hydroxy-5beta-pregnan-20-one dosage needed for SS vs 3beta-hydroxy-5alpha-pregnan-20-one dosage ([3]; FIG. 2, P<0.001, df=14): 0.78
- Slope of regression line: 3alpha-hydroxy-5beta-pregnan-20-one dosage needed for SS vs 3beta-hydroxy-5alpha-pregnan-20-one dosage ([3]; FIG. 2, slope p<0.001 different from 0): 0.46
- Effect on the anaesthetic effect of 3alpha-hydroxy-5beta-pregnan-20-one in vivo ([3]; given simultaneously i.v. at 70%, 100%, 123% and 143% of the 3alpha-hydroxy-5beta-pregnan-20-one dosage, dose dependent): can block the effect; also recorded: decreased the anaesthetic potency
- Effect on the anaesthetic/CNS depressing effect of 3alpha-hydroxy-5alpha-pregnan-20-one in vivo ([3]; given simultaneously i.v. at 100%, 123% and 143% of the 3alpha-hydroxy-5alpha-pregnan-20-one dosage, dose dependent): can block the effect; also recorded: decreased the anaesthetic potency
- Amount of 3alpha-hydroxy-5alpha-pregnan-20-one needed to obtain silent second, higher with combined solution compared to 3alpha-hydroxy-5alpha-pregnan-20-one alone ([3]; preliminary study, 50/50% with 3alpha-hydroxy-5alpha-pregnan-20-one in cyclodextrin solution, i.v. infusion, male Sprague-Dawley rats): 21%
- Effect by itself on signal transmission over the synapse ([1]; alone, up to micromolar range, not different from vehicle): no effect on signal transmission; also recorded: no effect by itself
- Blocking of the effect of 3alpha-hydroxy-5alpha-pregnan-20-one on the signal/POPSP ([1]; local application): can be blocked; also recorded: totally inhibited
- Blocking of the effect of 3alpha-hydroxy-5beta-pregnan-20-one on the signal/POPSP ([1]; local application): can be blocked; also recorded: can inhibit the effect
- Blocking of the effect of 3alpha-hydroxy-5alpha-pregnan-20-one when perfused to the whole hippocampus slice ([1]; perfusion of whole slice): same blocking effect
- Interaction with Muscimol (an agonist to GABA) on the GABA-A receptor ([1]; together with Muscimol, FIG. 5): does not interact with Muscimol
- Effect by itself on CNS activities [4]: no effect on CNS activities

Molecule: CC(=O)[C@H]1CC[C@H]2[C@@H]3CC[C@@H]4C[C@@H](O)CC[C@]4(C)[C@H]3CC[C@]12C [3beta-hydroxy-5beta-pregnan-20-one]
- Blocking of the effect of 3alpha-hydroxy-5alpha-pregnan-20-one on the signal/POPSP ([1]; local application): no blocking effect
- Blocking of the effect of 3alpha-hydroxy-5beta-pregnan-20-one on the signal/POPSP ([1]; local application): no blocking effect
- Effect as agonist, blocker or antagonist to the sedative steroids [2]: no effect either as a blocker or as an antagonist

Molecule: CC(=O)C1CCC2C3CC=C4CC(OS(=O)(=O)O)CCC4(C)C3CCC12C (stereo not shown) [Pregnenolone sulphate]
- Blocking of the effect of 3alpha-hydroxy-5beta-pregnan-20-one on the signal/POPSP ([1]; local application): could neither block
- Own effect on the signal in high micromolar concentrations ([1]; high micromolar concentrations): excitatory
